In ChEMBL document CHEMBL4616702 (ACS Med Chem Lett, 2020):

Columns and labels:
[1] = Half life in mouse liver microsomes in presence of NADPH by LC/MS/MS method; assay type: ADME, Microsome; settings: liver microsomes
[2] = Half life in rat liver microsomes in presence of NADPH by LC/MS/MS metho; assay type: ADME, Microsome; settings: liver microsomes
[3] = Volume of distribution in steady state in rat at 2 mg/kg, iv; assay type: ADME, organism-based; settings: in vivo, read-out: Vdss
Cytochrome P450 3A4 = Cytochrome P450 3A4 (Homo sapiens, UniProt P08684); experiment: Inhibition of recombinant CYP3A4 (unknown origin); assay type: ADME
[4] = AUC (0 to 24 hrs) in Balb/c mouse at 10 mg/kg, po; assay type: ADME, organism-based; design: dose 10 mg/kg, time < 24 hr, route oral; settings: in vivo
[5] = Drug concentration in Balb/c mouse at 10 mg/kg, po measured upto 24 hrs; assay type: ADME, organism-based; settings: in vivo, read-out: Drug uptake
[6] = AUC (0 to 24 hrs) in dog at 1 mg/kg, po; assay type: ADME, organism-based, Canis lupus familiaris; design: time < 24 hr, dose 1 mg/kg, route oral; settings: in vivo
[7] = Oral bioavailability in dog at 1 mg/kg; assay type: ADME, organism-based, Canis lupus familiaris; settings: in vivo
[8] = Half life in cynomolgus monkey at 1 mg/kg, iv; assay type: ADME, organism-based, Macaca fascicularis; settings: in vivo
[9] = Cmax in dog at 1 mg/kg, po; assay type: ADME, organism-based, Canis lupus familiaris; design: dose 1 mg/kg, route oral; settings: in vivo
[10] = Fraction unbound in human plasma; assay type: ADME, cell-free
[11] = Cmax in mouse at 4 mg/kg, po; assay type: ADME, organism-based; design: dose 4 mg/kg, route oral; settings: in vivo
[12] = Oral bioavailability in mouse at 4 mg/kg; assay type: ADME, organism-based; settings: in vivo
[13] = Fraction unbound in rat plasma; assay type: ADME, cell-free
[14] = Oral bioavailability in rat at 4 mg/kg; assay type: ADME, organism-based; settings: in vivo
[15] = target: T1, Nuclear receptor subfamily 1 group I member 2 (Homo sapiens, UniProt O75469); experiment: Inverse agonist activity at PXR (unknown origin)
T1 sequence (O75469 whole entry): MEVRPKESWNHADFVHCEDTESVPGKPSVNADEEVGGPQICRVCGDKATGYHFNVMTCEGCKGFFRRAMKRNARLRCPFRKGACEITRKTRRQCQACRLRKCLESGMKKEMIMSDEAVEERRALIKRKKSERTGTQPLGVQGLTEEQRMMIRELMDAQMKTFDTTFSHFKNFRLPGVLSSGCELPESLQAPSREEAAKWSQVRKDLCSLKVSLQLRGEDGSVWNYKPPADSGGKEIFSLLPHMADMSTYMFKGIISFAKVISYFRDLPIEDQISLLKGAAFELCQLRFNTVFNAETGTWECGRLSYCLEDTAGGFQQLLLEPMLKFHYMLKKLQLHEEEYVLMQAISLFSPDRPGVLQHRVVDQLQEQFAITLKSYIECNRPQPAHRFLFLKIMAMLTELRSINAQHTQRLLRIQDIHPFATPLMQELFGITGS

[16] = Volume of distribution in steady state in dog at 1 mg/kg, iv; assay type: ADME, organism-based, Canis lupus familiaris; settings: in vivo, read-out: Vdss
[17] = Clearance in rat at 2 mg/kg, iv; assay type: ADME, organism-based; settings: in vivo
[18] = Half life in dog at 1 mg/kg, iv; assay type: ADME, organism-based, Canis lupus familiaris; settings: in vivo
[19] = AUC (0 to 24 hrs) in rat at 4 mg/kg, po; assay type: ADME, organism-based; design: time < 24 hr, dose 4 mg/kg, route oral; settings: in vivo
Cytochrome P450 1A2 = target: T2, Cytochrome P450 1A2 (Homo sapiens, UniProt P05177); experiment: Inhibition of recombinant CYP1A2 (unknown origin); assay type: ADME
T2 sequence (P05177 whole entry): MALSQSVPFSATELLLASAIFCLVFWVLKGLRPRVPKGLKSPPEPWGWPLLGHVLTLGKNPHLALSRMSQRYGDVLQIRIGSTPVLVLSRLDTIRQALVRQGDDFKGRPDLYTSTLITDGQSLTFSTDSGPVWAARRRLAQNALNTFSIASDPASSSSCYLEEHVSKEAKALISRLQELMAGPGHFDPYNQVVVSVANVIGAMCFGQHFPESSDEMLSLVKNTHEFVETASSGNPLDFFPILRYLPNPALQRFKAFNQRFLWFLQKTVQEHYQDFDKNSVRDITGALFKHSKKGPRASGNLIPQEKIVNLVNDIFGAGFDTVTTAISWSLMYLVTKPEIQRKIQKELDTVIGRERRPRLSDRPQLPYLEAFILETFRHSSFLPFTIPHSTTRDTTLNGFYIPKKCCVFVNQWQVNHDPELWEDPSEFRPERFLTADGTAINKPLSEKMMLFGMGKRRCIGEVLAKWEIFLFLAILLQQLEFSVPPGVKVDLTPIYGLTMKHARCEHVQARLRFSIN

[20] = Permeability across apical to basolateral side in human Caco2 cells; assay type: ADME, cell-based; settings: Caco-2, read-out: permeability
Cytochrome P450 2C19 = Cytochrome P450 2C19 (Homo sapiens, UniProt P33261); experiment: Inhibition of recombinant CYP2C19 (unknown origin); assay type: ADME
[21] = Cmax in rat at 4 mg/kg, po; assay type: ADME, organism-based; design: dose 4 mg/kg, route oral; settings: in vivo
[22] = Volume of distribution in steady state in mouse at 2 mg/kg, iv; assay type: ADME, organism-based; settings: in vivo, read-out: Vdss
[23] = Half life in mouse at 2 mg/kg, iv; assay type: ADME, organism-based; settings: in vivo
[24] = Oral bioavailability in cynomolgus monkey at 1 mg/kg; assay type: ADME, organism-based, Macaca fascicularis; settings: in vivo
[25] = Clearance in dog at 1 mg/kg, iv; assay type: ADME, organism-based, Canis lupus familiaris; settings: in vivo
[26] = AUC (0 to 24 hrs) in cynomolgus monkey at 1 mg/kg, po; assay type: ADME, organism-based, Macaca fascicularis; design: dose 1 mg/kg, time < 24 hr, route oral; settings: in vivo
[27] = Fraction unbound in mouse plasma; assay type: ADME, cell-free
[28] = Clearance in mouse at 2 mg/kg, iv; assay type: ADME, organism-based; settings: in vivo
[29] = Cmax in Balb/c mouse at 10 mg/kg, po; assay type: ADME, organism-based; design: dose 10 mg/kg, route oral; settings: in vivo
[30] = target: T3, Nuclear receptor ROR-gamma (Mus musculus, UniProt P51450); experiment: Inverse agonist activity at RORgammat in mouse whole blood assessed as suppression of […] secretion; assay type: tissue-based
T3 sequence (P51450 whole entry): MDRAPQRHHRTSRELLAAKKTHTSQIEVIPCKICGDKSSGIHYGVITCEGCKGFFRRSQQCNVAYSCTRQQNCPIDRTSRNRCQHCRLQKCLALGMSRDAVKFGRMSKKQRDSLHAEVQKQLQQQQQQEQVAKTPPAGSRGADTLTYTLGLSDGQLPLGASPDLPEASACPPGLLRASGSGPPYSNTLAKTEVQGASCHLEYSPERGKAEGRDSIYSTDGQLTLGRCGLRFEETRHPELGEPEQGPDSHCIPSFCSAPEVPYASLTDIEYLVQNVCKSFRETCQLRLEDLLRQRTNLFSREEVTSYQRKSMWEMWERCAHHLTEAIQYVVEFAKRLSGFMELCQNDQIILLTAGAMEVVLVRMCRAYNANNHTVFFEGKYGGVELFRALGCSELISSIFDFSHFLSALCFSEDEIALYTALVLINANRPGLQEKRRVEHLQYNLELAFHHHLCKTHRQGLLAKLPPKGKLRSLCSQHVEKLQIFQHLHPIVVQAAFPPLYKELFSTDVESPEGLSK

Cytochrome P450 2D6 = Cytochrome P450 2D6 (Homo sapiens, UniProt P10635); experiment: Inhibition of recombinant CYP2D6 (unknown origin); assay type: ADME
[31] = AUC (0 to 24 hrs) in mouse at 4 mg/kg, po; assay type: ADME, organism-based; design: dose 4 mg/kg, time < 24 hr, route oral; settings: in vivo
[32] = Volume of distribution in steady state in cynomolgus monkey at 1 mg/kg, iv; assay type: ADME, organism-based, Macaca fascicularis; settings: in vivo, read-out: Vdss

Cytochrome P450 2D6, sequence (P10635 whole entry): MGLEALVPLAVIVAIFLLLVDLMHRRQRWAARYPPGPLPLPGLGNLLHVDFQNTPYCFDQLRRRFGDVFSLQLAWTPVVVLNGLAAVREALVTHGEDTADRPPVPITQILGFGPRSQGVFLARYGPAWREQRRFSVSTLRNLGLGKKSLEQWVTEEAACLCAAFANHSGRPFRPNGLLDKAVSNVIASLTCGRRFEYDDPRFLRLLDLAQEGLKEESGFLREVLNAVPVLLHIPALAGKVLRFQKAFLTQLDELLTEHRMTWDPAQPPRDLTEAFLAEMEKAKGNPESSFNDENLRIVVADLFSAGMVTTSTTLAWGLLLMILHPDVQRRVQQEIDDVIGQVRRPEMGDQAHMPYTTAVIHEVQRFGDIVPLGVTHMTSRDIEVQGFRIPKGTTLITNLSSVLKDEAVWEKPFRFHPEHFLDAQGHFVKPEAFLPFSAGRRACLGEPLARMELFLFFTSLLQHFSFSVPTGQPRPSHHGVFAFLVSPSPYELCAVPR
Cytochrome P450 2C19, sequence (P33261 whole entry): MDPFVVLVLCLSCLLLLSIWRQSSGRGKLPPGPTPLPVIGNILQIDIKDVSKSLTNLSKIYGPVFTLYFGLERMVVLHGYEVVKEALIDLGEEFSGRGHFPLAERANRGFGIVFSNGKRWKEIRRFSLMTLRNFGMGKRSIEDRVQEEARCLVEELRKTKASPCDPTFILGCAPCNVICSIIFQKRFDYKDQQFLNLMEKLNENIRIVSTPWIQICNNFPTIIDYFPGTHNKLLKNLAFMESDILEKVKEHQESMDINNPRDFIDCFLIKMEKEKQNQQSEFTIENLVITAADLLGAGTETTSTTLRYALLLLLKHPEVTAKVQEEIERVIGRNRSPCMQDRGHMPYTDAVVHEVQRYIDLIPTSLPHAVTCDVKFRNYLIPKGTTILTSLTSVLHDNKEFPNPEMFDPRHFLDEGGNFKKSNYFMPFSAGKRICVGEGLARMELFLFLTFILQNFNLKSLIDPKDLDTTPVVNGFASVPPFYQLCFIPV
Cytochrome P450 3A4, sequence (P08684 whole entry): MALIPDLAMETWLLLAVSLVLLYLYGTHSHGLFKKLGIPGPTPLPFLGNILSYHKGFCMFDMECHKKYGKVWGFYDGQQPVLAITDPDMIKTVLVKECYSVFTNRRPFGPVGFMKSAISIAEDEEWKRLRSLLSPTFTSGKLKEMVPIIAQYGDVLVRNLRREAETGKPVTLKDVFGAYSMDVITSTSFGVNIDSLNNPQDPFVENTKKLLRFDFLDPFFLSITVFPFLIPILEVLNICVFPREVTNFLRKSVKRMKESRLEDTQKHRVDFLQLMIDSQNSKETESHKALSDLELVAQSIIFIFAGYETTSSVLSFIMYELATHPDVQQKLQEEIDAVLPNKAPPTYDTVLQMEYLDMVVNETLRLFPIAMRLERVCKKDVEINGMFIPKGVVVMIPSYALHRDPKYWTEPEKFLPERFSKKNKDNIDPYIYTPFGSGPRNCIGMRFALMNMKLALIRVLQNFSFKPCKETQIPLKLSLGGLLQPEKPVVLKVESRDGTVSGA

C[C@H]1C[C@H](C(=O)O)CC[C@H]1C(=O)N1CC[C@@]2(S(=O)(=O)c3ccc(F)cc3)c3ccc(C(F)(C(F)(F)F)C(F)(F)F)cc3CC[C@@H]12 [BMS-986251]
half-life [1]: > 2 h | half-life [2]: > 2 h | Vd [3]: 1.2 L/kg | IC50 (Cytochrome P450 3A4): > 20 µM | AUC(0-t) at 24 h [4]: 68 µM·h | concentration at 24 h [5]: 0.52 µM | AUC(0-t) at 24 h [6]: 120 µM·h | bioavailability [7]: 100% | half-life [8]: 33 h | Cmax [9]: 6.4 µM | fraction unbound [10]: 0.012 | Cmax [11]: 4.8 µM | bioavailability [12]: 100% | fraction unbound [13]: 0.021 | bioavailability [14]: 94% | EC50 [15]: > 5 µM | Vd [16]: 0.5 L/kg | clearance [17]: 1.3 mL/min/kg | half-life [18]: 36 h | AUC(0-t) at 24 h [19]: 64 µM·h | IC50 (Cytochrome P450 1A2): > 20 µM | Papp A→B [20]: 24 ×10⁻⁶ cm/s | IC50 (Cytochrome P450 2C19): > 20 µM | Cmax [21]: 4.7 µM | Vd [22]: 1.9 L/kg | half-life [23]: 7.7 h | bioavailability [24]: 100% | clearance [25]: 0.18 mL/min/kg | AUC(0-t) at 24 h [26]: 35 µM·h | fraction unbound [27]: 0.016 | clearance [28]: 2.7 mL/min/kg | Cmax [29]: 11 µM | EC50 [30]: 0.011 µM | IC50 (Cytochrome P450 2D6): > 20 µM | AUC(0-t) at 24 h [31]: 37 µM·h | Vd [32]: 2 L/kg
